Results: article PMC8954831, “Design, Synthesis, Molecular Docking, and Biological Evaluation of Pyrazole Hybrid Chalcone Conjugates as Potential Anticancer Agents and Tubulin Polymerization Inhibitors” (Pharmaceuticals, 2022)
Where two headings read alike, the source gives them in different places.

Columns and labels:
[1] = test system: PC-3 (prostate cancer cell line); test: In vitro cytotoxicity, MTT assay, PC-3; format: cell-based; details: Homo sapiens, 48 h, read-out: IC50 PC3
Description: (§1) The resultant compounds were tested for their in vitro cytotoxic activity by MTT assay against breast (MCF-7), cervical (SiHa), and prostate (PC-3) cancer cell lines, and the human embryonic kidney cell line (HEK). […] Subsequently, SAR studies were done by investigating the effect of substituents on cytotoxic activity.
(§2) Human cervical cancer cell line SiHa, human breast cancer cell line MCF-7, human prostate cancer cell line PC-3, and human embryonic kidney HEK-293 cells were procured from the National Centre for Cell Sciences (NCCS) Pune, India. In this experiment, antibiotics (100 units/mL penicillin and 100 mg L^−1 streptomycin were grown as a monolayer culture in Dulbecco’s modified Eagle’s medium containing 10% fetal bovine serum) were cultured in a humidified atmosphere of 5% CO2 at 37 °C in T-75 flasks and subcultured twice a week.
(§3) The cytotoxic effects of the selected compounds were evaluated by MTT assay on the above-mentioned cell lines. Initially, 2 × 10^4 cells/well were seeded into 96-well plates (150 µL/well) in triplicates and allowed to grow. The cells were incubated for 24 h and subsequently treated with varying concentrations of the compounds. After 48 h, the cells were incubated with 20 μL of MTT (5 mg/mL in PBS) in a fresh medium for 4 h at 37 °C. MTT is a metabolic substrate that is reduced to give formazan crystals, which were solubilized in DMSO (150 µL/well) and analyzed by reading the absorbance at 540 nm after 15 min of the incubation period on the iMark Microplate Reader (Bio-Rad). Percentage viability and IC50 values were used to determine the relative absorbance of treated versus control (untreated) cells.

[2] = test system: MCF-7 (breast cancer cell line); test: In vitro cytotoxicity, MTT assay, MCF-7; format: cell-based, human
Description: as §1, §2, §3

[3] = test system: SiHa (cervical cancer cell line); test: In vitro cytotoxicity, MTT assay, SiHa; format: cell-based; details: Homo sapiens, 48 h, read-out: IC50 SiHa
Description: as §1, §2, §3

[4] = test system: HEK-293 (human embryonic kidney cells); test: In vitro cytotoxicity, MTT assay, HEK-293 normal cells; format: cell-based; details: for IC50: read-out: IC50 HEK-293
Description: as §1, §2, §3

[5] = target: tubulin (purified brain tubulin) (Sus scrofa, UniProt P02550+P02554); test: In vitro tubulin polymerization assay (fluorescence); format: biochemical; details: for inhibition at 10 µM: read-out: % Inhibition of Tubulin Polymerization at 10 µM; for inhibition at 3 µM: read-out: % Inhibition of Tubulin Polymerization
Description: The α and β tubulin subunits are recognized by heterodimers and self-assemble into a stable microtubule in a time-dependent manner. Assessment of the inhibitory effect of new pyrazolic chalcone conjugates on tubulin polymerization was also carried out. The progression of tubulin polymerization was thus examined by monitoring the increase in the fluorescence intensity at 450 nm (excitation wavelength of 360 nm) in a 384-plate for 1 h at 37 °C with and without the conjugate at 10 µM concentration. CA-4 (6 µM) and Vincristine (3 µM) were used as the positive control, whereas paclitaxel (3 µM) was used as the negative control.
Tubulin polymerization is a dynamic process by enhancement of fluorescence intensity due to the combination of a fluorescent reporter into the microtubules as polymerization occurs. Tubulin polymerization was performed by using a purified brain tubulin polymerization kit purchased from Cytoskeleton (BK110P, Denver, CO, USA). The tubulin polymerization assay was monitored by the increase in fluorescence over a 60 min period at 37 °C, with excitation at 360 nm and emission at 450 nm. The final buffer concentration for tubulin polymerization contained 80 mM PIPES, pH 6.9; 2 mM MgCl2; 0.5 mM EGTA; […]; and 15% glycerol. Firstly, 5 µL of the test compounds (final concentration of 10 µM) was added and then warmed to 37 °C for 1 min. The reaction was initiated by adding 50 µL of the tubulin reaction mix as specified for 6 min.

[6] = Homo sapiens, MCF7, MTT, 48 h, breast cancer, read-out: IC50 MCF-7
[7] = HEK293, MTT, 48 h, human normal cell line

Chain of tubulin (purified brain tubulin) (P02550 whole entry): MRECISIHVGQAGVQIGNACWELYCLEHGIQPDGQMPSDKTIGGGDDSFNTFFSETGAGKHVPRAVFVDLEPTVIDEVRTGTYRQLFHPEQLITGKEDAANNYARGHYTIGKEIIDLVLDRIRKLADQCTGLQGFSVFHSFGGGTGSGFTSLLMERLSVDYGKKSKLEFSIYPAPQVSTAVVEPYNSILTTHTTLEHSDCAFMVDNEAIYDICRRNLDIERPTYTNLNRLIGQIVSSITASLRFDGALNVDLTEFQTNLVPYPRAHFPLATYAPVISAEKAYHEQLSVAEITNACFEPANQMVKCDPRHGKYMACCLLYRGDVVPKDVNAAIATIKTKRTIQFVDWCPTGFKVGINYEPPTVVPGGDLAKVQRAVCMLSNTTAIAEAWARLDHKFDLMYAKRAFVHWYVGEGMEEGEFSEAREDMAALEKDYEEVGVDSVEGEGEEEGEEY
Chain of tubulin (purified brain tubulin) (P02554 whole entry): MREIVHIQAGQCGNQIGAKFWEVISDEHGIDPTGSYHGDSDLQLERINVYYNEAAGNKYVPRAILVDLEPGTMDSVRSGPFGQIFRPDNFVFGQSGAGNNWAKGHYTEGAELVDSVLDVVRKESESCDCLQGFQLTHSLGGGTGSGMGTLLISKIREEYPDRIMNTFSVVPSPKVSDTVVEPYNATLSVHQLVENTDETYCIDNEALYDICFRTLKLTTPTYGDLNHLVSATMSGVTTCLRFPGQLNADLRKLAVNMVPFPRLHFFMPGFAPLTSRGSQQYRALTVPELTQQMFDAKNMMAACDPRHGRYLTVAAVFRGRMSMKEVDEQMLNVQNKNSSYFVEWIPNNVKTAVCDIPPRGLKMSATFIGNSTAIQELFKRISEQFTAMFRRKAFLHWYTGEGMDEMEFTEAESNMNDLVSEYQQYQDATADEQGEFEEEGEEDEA

Row | Compound | melting point | inhibition at 10 µM [5] | IC50 ([1]; MTT, prostate cancer) | IC50 [2, 6] | IC50 ([3]; MTT, cervical cancer) | IC50 [4, 7] | further results
1 | COc1ccc(/C=C\c2cc(OC)c(OC)c(OC)c2)cc1O [Combretastatin A-4, reference compound] |  |  |  |  |  |  | IC50 [1]: 3.86 ± 0.39 µM; IC50 ([2]; Homo sapiens, MCF7, 48 h, read-out: IC50 MCF-7, MTT, 48 h, breast cancer): 4.12 to 5.23 µM; IC50 ([2]; read-out: IC50 MCF-7, MTT, 48 h, breast cancer, listed as CA-4): 4.12 ± 0.38 µM; IC50 [3]: 5.23 ± 0.85 µM; IC50 ([4]; Homo sapiens, HEK293, 48 h): 19.2 ± 1.65 µM
2 | O=C(/C=C/c1cn(-c2ccccc2)nc1-c1ccc(OCc2ccccc2)cc1)c1ccccc1Cl [Compound 5b, (E)-3-(3-(4-(benzyloxy)phenyl)-1-phenyl-1H-pyrazol-4-yl)-1-(2-chlorophenyl)prop-2-en-1-one] | 182 to 184 °C |  |  |  |  |  | 
3 | O=C(/C=C/c1cn(-c2ccccc2)nc1-c1ccc(OCc2ccccc2)cc1)c1cccc([N+](=O)[O-])c1 [Compound 5c, (E)-3-(3-(4-(benzyloxy)phenyl)-1-phenyl-1H-pyrazol-4-yl)-1-(3-nitrophenyl)prop-2-en-1-one] | 203 to 205 °C |  |  |  |  |  | 
4 | O=C(/C=C/c1cn(-c2ccccc2)nc1-c1ccc(OCc2ccccc2)cc1)c1cccc(O)c1 [Compound 5d, (E)-3-(3-(4-(benzyloxy)phenyl)-1-phenyl-1H-pyrazol-4-yl)-1-(3-hydroxyphenyl)prop-2-en-1-one] | 184 to 186 °C | 49.8% | 2.97 ± 0.88 µM | 4.1 ± 1.12 µM | 4.85 ± 0.89 µM | > 50 µM | 
5 | O=C(/C=C/c1cn(-c2ccccc2)nc1-c1ccc(OCc2ccccc2)cc1)c1ccc(Cl)cc1 [Compound 5e, (E)-3-(3-(4-(benzyloxy)phenyl)-1-phenyl-1H-pyrazol-4-yl)-1-(4-chlorophenyl)prop-2-en-1-one] |  | 48.4% | 9.68 ± 1.42 µM | 11.5 ± 1.62 µM | 12.3 ± 1.32 µM | > 50 µM | 
6 | O=C(/C=C/c1cn(-c2ccccc2)nc1-c1ccc(OCc2ccccc2)cc1)c1ccc(F)cc1 [Compound 5f, (E)-3-(3-(4-(benzyloxy)phenyl)-1-phenyl-1H-pyrazol-4-yl)-1-(4-fluorophenyl)prop-2-en-1-one] | 168 to 170 °C |  |  |  |  |  | 
7 | O=C(/C=C/c1cn(-c2ccccc2)nc1-c1ccc(OCc2ccccc2)cc1)c1ccc(Br)cc1 [Compound 5g, (E)-3-(3-(4-(benzyloxy)phenyl)-1-phenyl-1H-pyrazol-4-yl)-1-(4-bromophenyl)prop-2-en-1-one] | 178 to 180 °C |  |  |  |  |  | 
8 | O=C(/C=C/c1cn(-c2ccccc2)nc1-c1ccc(OCc2ccccc2)cc1)c1ccc(O)cc1 [Compound 5h, (E)-3-(3-(4-(benzyloxy)phenyl)-1-phenyl-1H-pyrazol-4-yl)-1-(4-hydroxyphenyl)prop-2-en-1-one] | 167 to 169 °C |  |  |  |  |  | 
9 | O=C(/C=C/c1cn(-c2ccccc2)nc1-c1ccc(OCc2ccccc2)cc1)c1ccc([N+](=O)[O-])cc1 [Compound 5i, (E)-3-(3-(4-(benzyloxy)phenyl)-1-phenyl-1H-pyrazol-4-yl)-1-(4-nitrophenyl)prop-2-en-1-one] | 223 to 225 °C | 28.4% | 13.1 ± 1.6 µM | 42.7 ± 0.34 µM | 34.5 ± 0.9 µM | 45.2 ± 2.6 µM | 
10 | Cc1ccc(C(=O)/C=C/c2cn(-c3ccccc3)nc2-c2ccc(OCc3ccccc3)cc2)cc1 [Compound 5j, (E)-3-(3-(4-(benzyloxy)phenyl)-1-phenyl-1H-pyrazol-4-yl)-1-(p-tolyl)prop-2-en-1-one] | 205 to 207 °C |  |  |  |  |  | 
11 | COc1ccc(C(=O)/C=C/c2cn(-c3ccccc3)nc2-c2ccc(OCc3ccccc3)cc2)cc1 [Compound 5k, (E)-3-(3-(4-(benzyloxy)phenyl)-1-phenyl-1H-pyrazol-4-yl)-1-(4-methoxyphenyl)prop-2-en-1-one] | 187 to 189 °C | 32.8% | 5.45 ± 0.94 µM | 7.23 ± 0.74 µM | 5.65 ± 0.71 µM | > 50 µM | 
12 | O=C(/C=C/c1cn(-c2ccccc2)nc1-c1ccc(OCc2ccccc2)cc1)c1ccc(Cl)c(Cl)c1 [Compound 5l, (E)-3-(3-(4-(benzyloxy)phenyl)-1-phenyl-1H-pyrazol-4-yl)-1-(3,4-dichlorophenyl)prop-2-en-1-one] | 243 to 245 °C | 55.2% | 5.84 ± 1.65 µM | 8.23 ± 1.45 µM | 11.7 ± 2.83 µM | > 50 µM | 
13 | O=C(/C=C/c1cn(-c2ccccc2)nc1-c1ccc(OCc2ccccc2)cc1)c1ccc(Cl)cc1Cl [Compound 5m, (E)-3-(3-(4-(benzyloxy)phenyl)-1-phenyl-1H-pyrazol-4-yl)-1-(2,4dichlorophenyl)prop-2-en-1-one] | 192 to 194 °C | 33.8% | 11.2 ± 1.44 µM | 17.1 ± 2.25 µM | 6.46 ± 1.52 µM | > 50 µM | 
14 | O=C(/C=C/c1cn(-c2ccccc2)nc1-c1ccc(OCc2ccccc2)cc1)c1ccc(O)cc1O [Compound 5n, (E)-3-(3-(4-(benzyloxy)phenyl)-1-phenyl-1H-pyrazol-4-yl)-1-(2,4-dihydroxyphenyl)prop-2-en-1-one] | 176 to 178 °C | 47.6% | 3.56 ± 0.63 µM | 6.98 ± 1.12 µM | 3.6 ± 0.45 µM | > 50 µM | 
15 | COc1ccc(C(=O)/C=C/c2cn(-c3ccccc3)nc2-c2ccc(OCc3ccccc3)cc2)cc1OC [Compound 5o, (E)-3-(3-(4-(benzyloxy)phenyl)-1-phenyl-1H-pyrazol-4-yl)-1-(3,4-dimethoxyphenyl)prop-2-en-1-one] | 206 to 208 °C | 66.4% | 4.46 ± 0.53 µM | 2.13 ± 0.8 µM | 4.34 ± 0.98 µM | > 50 µM | toxicity to the HEK cells ([4]; in words): did not exhibit significant toxicity
16 | COc1ccc(C(=O)/C=C/c2cn(-c3ccccc3)nc2-c2ccc(OCc3ccccc3)cc2)c(OC)c1 [Compound 5p, (E)-3-(3-(4-(benzyloxy)phenyl)-1-phenyl-1H-pyrazol-4-yl)-1-(2,4-dimethoxyphenyl)prop-2-en-1-one] | 226 to 228 °C | 51.1% | 6.52 ± 1.23 µM | 3.45 ± 1.28 µM | 4.98 ± 0.54 µM | > 50 µM | 
17 | COc1ccc(C(=O)/C=C/c2cn(-c3ccccc3)nc2-c2ccc(OCc3ccccc3)cc2)c(Br)c1 [Compound 5q, (E)-3-(3-(4-(benzyloxy)phenyl)-1-phenyl-1H-pyrazol-4-yl)-1-(2-bromo-4-methoxyphenyl)prop-2-en-1-one] | 174 to 176 °C |  |  |  |  |  | 
18 | O=C(/C=C/c1cn(-c2ccccc2)nc1-c1ccc(OCc2ccccc2)cc1)c1ccc(C(F)(F)F)cc1 [Compound 5r, (E)-3-(3-(4-(benzyloxy)phenyl)-1-phenyl-1H-pyrazol-4-yl)-1-(4-(trifluoromethyl)Phenyl)prop-2-en-1-one] | 186 to 188 °C | 31.5% | > 50 µM | 14.8 ± 2.76 µM | > 50 µM | 38.3 ± 1.72 µM | 
19 | CC(=O)O[C@H]1C(=O)[C@@]2(C)[C@H]([C@H](OC(=O)c3ccccc3)[C@]3(O)C[C@H](OC(=O)[C@H](O)[C@@H](NC(=O)c4ccccc4)c4ccccc4)C(C)=C1C3(C)C)[C@]1(OC(C)=O)CO[C@@H]1C[C@@H]2O [Paclitaxel, paclitaxel, reference compound] |  |  |  |  |  |  | inhibition at 3 µM [5]: -25.7%
20 | CC[C@]1(O)C[C@H]2CN(CCc3c([nH]c4ccccc34)[C@@](C(=O)OC)(c3cc4c(cc3OC)N(C=O)[C@H]3[C@@](O)(C(=O)OC)[C@H](OC(C)=O)[C@]5(CC)C=CCN6CC[C@]43[C@@H]65)C2)C1 [Vincristine, reference compound] |  |  |  |  |  |  | inhibition at 3 µM [5]: 75.5%
